Measurements published in US6472348B1, “Pyridone derivatives and herbicides” (Kumiai Chemical Industry Co., Ltd., priority 1996, dated 2002).

What was measured:
monochoria (Mo) = experiment: Test Example 1: herbicidal effects by paddy field soil treatment; assay type: in vivo; details: 100 g of the active ingredient per 10 ares, 21st day after the application, index 0-5 of Table 47;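 note: grade of growth control; 5 = at least 90%; 4 = 70 to 90%; 3 = 50 to 70%; 2 = 30 to 50%; 1 = 10 to 30%; 0 = under 10%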
Outline: (§1)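 Greenhouse pot test in flooded paddy soil, dosed at 100 g a.i. per 10 ares; effect scored on day 21.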

barnyardgrass (Ec) [1] = experiment: as above; assay type: in vivo; details: 100 g of the active ingredient per 10 ares, 21st day after the application, index 0-5 of Table 47
Outline: as §1

bulrush (Sc) = experiment: as above; assay type: in vivo; details: 100 g of the active ingredient per 10 ares, 21st day after the application, index 0-5 of Table 47;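 note: grade of growth control; 5 = at least 90%; 4 = 70 to 90%; 3 = 50 to 70%; 2 = 30 to 50%; 1 = 10 to 30%; 0 = under 10%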
Outline: as §1

Diaitaria ciliaris (Di) = experiment: Test Example 3: herbicidal effects by upland field foliage treatment; assay type: in vivo; parameters: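 grade of growth control; 5 = at least 90%; 4 = 70 to 90%; 3 = 50 to 70%; 2 = 30 to 50%; 1 = 10 to 30%; 0 = under 10%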
Outline: (§2)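 Scoring used a standard effect scale on the 14th day post-treatment, with plants held in a greenhouse throughout. Foliar application was made to weeds raised from seed in sand-filled pots for 2 weeks.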

pale smartweed (Po) [2] = experiment: as above; assay type: in vivo; parameters: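 grade of growth control; 5 = at least 90%; 4 = 70 to 90%; 3 = 50 to 70%; 2 = 30 to 50%; 1 = 10 to 30%; 0 = under 10%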
Outline: as §2

barnyardgrass (Ec) [3] = experiment: as above; assay type: in vivo; parameters: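 grade of growth control; 5 = at least 90%; 4 = 70 to 90%; 3 = 50 to 70%; 2 = 30 to 50%; 1 = 10 to 30%; 0 = under 10%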
Outline: as §2

[4] = tested on: common lambsquarters (Ch); experiment: as above; assay type: in vivo; parameters: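 grade of growth control; 5 = at least 90%; 4 = 70 to 90%; 3 = 50 to 70%; 2 = 30 to 50%; 1 = 10 to 30%; 0 = under 10%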
Outline: as §2

slender amaranth (Am) [5] = experiment: as above; assay type: in vivo; parameters: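 grade of growth control; 5 = at least 90%; 4 = 70 to 90%; 3 = 50 to 70%; 2 = 30 to 50%; 1 = 10 to 30%; 0 = under 10%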
Outline: as §2

rice flatsedge (Ci) [6] = experiment: as above; assay type: in vivo; parameters: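 grade of growth control; 5 = at least 90%; 4 = 70 to 90%; 3 = 50 to 70%; 2 = 30 to 50%; 1 = 10 to 30%; 0 = under 10%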
Outline: as §2

pale smartweed (Po) [7] = experiment: Test Example 2: herbicidal effects by upland field soil treatment; assay type: in vivo; details: 100 g of the active ingredient per 10 ares;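 note: grade of growth control; 5 = at least 90%; 4 = 70 to 90%; 3 = 50 to 70%; 2 = 30 to 50%; 1 = 10 to 30%; 0 = under 10%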
Text: (§3) (Test on Herbicidal Effects by Upland Field Soil Treatment)

barnyardgrass (Ec) [8] = experiment: as above; assay type: in vivo; details: 100 g of the active ingredient per 10 ares
Text: as §3

[9] = tested on: common lambsquarters (Ch); experiment: as above; assay type: in vivo; details: 100 g of the active ingredient per 10 ares
Text: as §3

Digitaria ciliaris (Di) = experiment: as above; assay type: in vivo; details: 100 g of the active ingredient per 10 ares;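 note: grade of growth control; 5 = at least 90%; 4 = 70 to 90%; 3 = 50 to 70%; 2 = 30 to 50%; 1 = 10 to 30%; 0 = under 10%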
Text: as §3

slender amaranth (Am) [10] = experiment: as above; assay type: in vivo; details: 100 g of the active ingredient per 10 ares
Text: as §3

rice flatsedge (Ci) [11] = experiment: as above; assay type: in vivo; details: 100 g of the active ingredient per 10 ares
Text: as §3

[12] = 100 g of the active ingredient per 10 ares, evaluated on the 14th day after treatment
[13] = 21st day after the application, index 0-5 of Table 47
[14] = 100 g active ingredient per 10 ares, evaluated 14th day after treatment
[15] = evaluated on the 21st day after application

Row | melting point [°C] | SMILES | Herbicidal effects Mo (monochoria (Mo)) | Herbicidal effects Ec (barnyardgrass (Ec) [1]) | Herbicidal effects Sc (bulrush (Sc)) | Herbicidal effects Di (Diaitaria ciliaris (Di); [12]) | Herbicidal effects Po (pale smartweed (Po) [2]; [12]) | Herbicidal effects Ec (barnyardgrass (Ec) [3]; [12]) | Herbicidal effects Ch [4, 12] | Herbicidal effects Am (slender amaranth (Am) [5]; [12]) | Herbicidal effects Ci (rice flatsedge (Ci) [6]; [12]) | Herbicidal effects Po (pale smartweed (Po) [7]; [13]) | Herbicidal effects Ec (barnyardgrass (Ec) [8]; [13]) | Herbicidal effects Ch [9, 13] | Herbicidal effects Di (Digitaria ciliaris (Di); [13]) | Herbicidal effects Am (slender amaranth (Am) [10]; [13]) | Herbicidal effects Ci (rice flatsedge (Ci) [11]; [13]) | also measured
1 | 117 to 118 | Cn1c(C(F)(F)F)ccc(-c2cc(CBr)c(Cl)cc2F)c1=O [Compound No. 1-82, 3-(4-chloro-2-fluoro-5-bromomethylphenyl)-1-methyl-6-trifluoromethyl-2(1H)-pyridone] | 5 | 5 | 5 | 5 | 5 | 4 | 5 | 5 | 5 | 5 | 4 | 5 | 5 | 5 | 5 | –
2 | 107 to 108 | C#CCOc1cc(-c2cc(C)c(C(F)(F)F)n(C)c2=O)c(F)cc1Cl [Compound No. 1-76, 3-(4-chloro-2-fluoro-5-propargyloxyphenyl)-1,5-dimethyl-6-trifluoromethyl-2(1H)-pyridone] | 5 | 5 | 5 | 5 | 5 | 5 | 5 | 5 | 5 | 5 | 5 | 5 | 5 | 5 | 5 | –
3 | 120 to 122 | CCCC(O)c1cc(-c2ccc(C(F)(F)F)n(C)c2=O)c(F)cc1Cl (stereo not drawn) [Compound No. 1-193, 3-[4-chloro-2-fluoro-5-(1-hydroxybutyl)phenyl]-1-methyl-6-trifluoromethyl-2(1H)-pyridone] | 5 | 5 | 5 | – | – | – | – | – | – | – | – | – | – | – | – | Herbicidal effects Di (Diaitaria ciliaris (Di); [14]): 5; Herbicidal effects Po (pale smartweed (Po) [2]; [14]): 5; Herbicidal effects Ec (barnyardgrass (Ec) [3]; [14]): 5; Herbicidal effects Ch [4, 14]: 5; Herbicidal effects Am (slender amaranth (Am) [5]; [14]): 5; Herbicidal effects Ci (rice flatsedge (Ci) [6]; [14]): 5; Herbicidal effects Po (pale smartweed (Po) [7]; [15]): 5; Herbicidal effects Ec (barnyardgrass (Ec) [8]; [15]): 5; Herbicidal effects Ch [9, 15]: 5; Herbicidal effects Di (Digitaria ciliaris (Di); [15]): 5; Herbicidal effects Am (slender amaranth (Am) [10]; [15]): 5; Herbicidal effects Ci (rice flatsedge (Ci) [11]; [15]): 5
